Reference: patent US4806547A, “Isoquinoline derivatives, analgesic compounds thereof and method of treating pain” (Dr. Lo. Zambeletti SPA, priority 1986, dated 1989)
Structures can show the parent of a compound that is named as a salt. Where two headings read alike, the source gives them in different places.

Assays:
[1] = target: μ opioid receptor (μ sites) (Cavia porcellus, UniProt A0ACM8Q262); test: Receptor binding to μ sites (3H-DAGO)
Protocol: Radio receptor binding to μ and K sites is performed on fresh guinea pig brain homogenate prepared according to Kosterlitz.
(§1) Whole brain without cerebellum is homogenized in 50 mM, Tris-buffer (pH 7.4 at 0° C.) and centrifuged at 49,000×g×10 min.
(§2) The pellet is then resuspended in the same buffer, incubated at 37° C. for 45 min. and centrifuged again.
(§3) 1.9 ml of the final homogenate (1:100 in Tris-pH 7.4, 0° C.) is used for the binding assay.
^3 H[D--Ala^2, MePhe^4, Gly--ol^5 ]
The filters are then dryed, solubilized in Filtercount and the radioactivity monitored. Non specific binding is determined in the presence of 10^-6 M Naloxone.
(§4) A concentration of radioligand near KD is used in the binding assays evaluating our compounds.

[2] = target: T1, K (Kappa) opioid receptor (K sites) (Cavia porcellus, UniProt P41144); test: Receptor binding to K sites (tritiated Ethylketocyclazocine); set-up: species or system guinea pig
T1 construct: fresh guinea pig brain homogenate; from tissue; host or cells: guinea pig whole brain without cerebellum, homogenate
Protocol: Radio receptor binding to μ and K sites is performed on fresh guinea pig brain homogenate prepared according to Kosterlitz. (1981).
as §1, §2, §3
Binding to K sites (Magnan J., 1982)
The binding of tritiated Ethylketocyclazocine to brain homogenate is measured in the presence of 100 nanomolar D--Ala--D--LeuEnkephalin (DADLE) and 100 nanomolar DAGO, added to saturate the δ and μ opioid receptors respectively.
Final homogenate with solutions of the cold ligand and of the labelled ligand is incubated for 40 min. at 25° C., filtered through Whatman GF/C glass filter discs and washed.
The radioactivity bound to the filters is counted by liquid scintillation spectrophotometry.
MR 2266.500 nM is utilized to determine the saturable binding.
For the calculation of the kinetic parameters of the binding of labelled and unlabelled ligands, the equilibrium dissociation constant (KD), the inhibition constant (Ki) and the maximum number of binding sites (B max) are determined from saturation curves and competition experiments (Hill 1910; Scatchard 1949; Cheng and Prusoff 1973); Gillan et al. 1980).
as §4

mice = test: Mouse Tail-flick test (analgesic activity); assay type: in vivo, mouse (male Charles River); conditions: 30 min after dosing; for ED50: Mus musculus, sc, 0.5 h, s.c., mice doubling the initial reaction time
Protocol: Mouse Tail-flick test (Modified from the procedure published by D'Amour et al., J. Pharm. Exptl. Ther.72, 74/1941).
Male Charles River mice, average weight 26 g, are used. Selection is carried out before beginning of experiments: only mice whose reaction time is less than 8 sec are used. They are randomly distributed into groups of 10 and dosed with compounds under test, with positive and negative controls being included.
Compounds under test are administered subcutaneously in isotonic saline in a volume of 20 ml. Kg^-1. 30 min later mice are placed again under heat source (Socrel apparatus) and reaction time is recorded.
The analgesic activity of the test compound is expressed as the percent number of mice doubling the initial time within a group. [formula]

[3] = read-out: RECEPTOR BINDING Ki μ, guinea pig brain homogenate, 25° C., 40 min
[4] = guinea pig brain homogenate, 25° C., 40 min, read-out: RECEPTOR BINDING Ki μ
[5] = read-out: RECEPTOR BINDING Ki K, guinea pig brain homogenate, tritiated Ethylketocyclazocine with 100 nM DADLE and 100 nM DAGO, 25° C., 40 min

T1 sequence (P41144 whole entry): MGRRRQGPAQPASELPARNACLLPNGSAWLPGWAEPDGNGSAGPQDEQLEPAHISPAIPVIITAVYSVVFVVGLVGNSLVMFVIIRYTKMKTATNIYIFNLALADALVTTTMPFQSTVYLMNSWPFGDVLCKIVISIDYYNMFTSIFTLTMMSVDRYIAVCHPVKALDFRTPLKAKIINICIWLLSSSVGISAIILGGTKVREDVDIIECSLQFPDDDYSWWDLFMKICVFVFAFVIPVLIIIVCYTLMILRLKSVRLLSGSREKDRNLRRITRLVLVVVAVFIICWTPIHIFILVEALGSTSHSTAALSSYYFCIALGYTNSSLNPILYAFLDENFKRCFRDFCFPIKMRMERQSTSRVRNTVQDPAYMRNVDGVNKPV
Sequence of μ opioid receptor (μ sites) (A0ACM8Q262 1-400): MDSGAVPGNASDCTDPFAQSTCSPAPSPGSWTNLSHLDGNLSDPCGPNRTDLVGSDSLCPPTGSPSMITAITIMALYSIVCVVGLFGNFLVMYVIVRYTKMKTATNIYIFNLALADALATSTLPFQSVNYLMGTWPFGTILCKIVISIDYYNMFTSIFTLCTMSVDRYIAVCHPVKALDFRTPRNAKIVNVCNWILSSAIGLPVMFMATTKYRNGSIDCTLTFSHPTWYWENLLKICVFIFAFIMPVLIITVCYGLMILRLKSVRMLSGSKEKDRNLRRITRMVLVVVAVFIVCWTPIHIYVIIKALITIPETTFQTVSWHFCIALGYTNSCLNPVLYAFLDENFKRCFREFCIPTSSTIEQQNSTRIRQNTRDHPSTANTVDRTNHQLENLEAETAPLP

| SMILES | Ki [1, 3] [nM] | ED50 (mice) [mg/kg] | Ki [1, 4] [nM] | Ki [2, 5] [nM] | further results |
| --- | --- | --- | --- | --- | --- |
| CN(C)CC1c2ccccc2CCN1C(=O)Cc1ccc(Cl)c(Cl)c1 (single isomer, unassigned) [Example 3, hemihydrate] | 286 | 0.032 |  |  | Ki [2]: 2.37 nM |
| O=C(Cc1ccc(Cl)c(Cl)c1)N1CCc2ccccc2C1CN1CCCC1 (single isomer, unassigned) [Example 9, (-)-1-[1-pyrrolidinylmethyl)-2-(3,4-dichlorophenylacetyl)-1,2,4-tetrahydroisoquinoline (-)-tartrate] |  | 0.009 |  |  |  |
| CN(C)CC1c2ccccc2CCN1C(=O)Cc1ccc(Cl)c(Cl)c1 (stereo not drawn) [Example 1, 1-dimethylaminomethyl-2-(3,4-dichlorophenyl)-acetyl-1,2,3,4-tetrahydroisoquinoline hydrochloride] | 415 | 0.041 |  |  | Ki ([2]; guinea pig brain homogenate, tritiated Ethylketocyclazocine with 100 nM DADLE and 100 nM DAGO, 25° C., 40 min, read-out: RECEPTOR BINDING Ki K): 1.59 nM |
| CN(C)CC1c2ccccc2CCN1C(=O)Cc1ccc(Br)cc1 (stereo not drawn) [Example 4, 2-(4-bromophenylacetyl)-1-dimethylaminomethyl-1,2,3,4-tetrahydroisoquinoline hydrochloride] |  | 0.25 | 597 |  | Ki [2]: 3.19 nM |
| CN(C)CC1c2ccccc2CCN1C(=O)Cc1ccc([N+](=O)[O-])cc1 (stereo not drawn) [Example 5, 1-dimethylaminomethyl-2-(nitrophenylacetyl)-1,2,3,4-tetrahydroisoquinoline hydrochloride hemihydrate] |  | 0.23 | 655 | 5.72 |  |
| CN(C)CC1c2ccccc2CCN1C(=O)Cc1ccccc1[N+](=O)[O-] (stereo not drawn) [Example 6, 1-dimethylaminomethyl-2-(2-nitrophenylacetyl)-1,2,3,4-tetrahydroisoquinoline hydrochloride hemihydrate] |  |  | > 10000 | 30.6 |  |
| O=C(Cc1ccc(Cl)c(Cl)c1)N1CCc2ccccc2C1CN1CCCC1 (stereo not drawn) [Example 7, 1-[1-pyrrolidinylmethyl)-2-(3,4-dichlorophenylacetyl)-1,2,3,4-tetrahydroisoquinoline hydrochloride] |  | 0.016 |  |  |  |
| O=C(Cc1ccc(Br)cc1)N1CCc2ccccc2C1CN1CCCC1 (stereo not drawn) [Example 10, 1-(1-pyrrolidinylmethyl)-2-(4-bromophenylacetyl)-1,2,3,4-tetrahydroisoquinoline hydrochloride] | 50 | 0.031 |  |  | Ki [2]: 0.57 nM |
| O=C(Cc1ccc([N+](=O)[O-])cc1)N1CCc2ccccc2C1CN1CCCC1 (stereo not drawn) [Example 11, 1-(1-pyrrolidinylmethyl)-2-(4-nitrophenylacetyl)-1,2,3,4-tetrahydroisoquinoline hydrochloride hemihydrate] | 62 | 0.016 |  | 0.64 |  |
| O=C(Cc1cccc([N+](=O)[O-])c1)N1CCc2ccccc2C1CN1CCCC1 (stereo not drawn) [Example 12, 1-(1-pyrrolidinylmethyl)-2-(3-nitrophenylacetyl)-1,2,3,4-tetrahydroisoquinoline hydrochloride hydrate] |  | 0.23 |  |  |  |
| O=C(Cc1ccccc1[N+](=O)[O-])N1CCc2ccccc2C1CN1CCCC1 (stereo not drawn) [Example 13, 1-(1-pyrrolidinylmethyl)-2-(2-nitrophenylacetyl)-1,2,3,4-tetrahydroisoquinoline hydrochloride hemihydrate] |  |  | 1850 | 7.94 |  |
| O=C(Cc1ccc(C(F)(F)F)cc1)N1CCc2ccccc2C1CN1CCCC1 (stereo not drawn) [Example 14, 1-(1-pyrrolidinylmethyl)-2-(4-trifluoromethylacetyl)-1,2,3,4-tetrahydroisoquinoline hydrochloride] |  | 0.33 |  |  |  |
| N#Cc1ccc(CC(=O)N2CCc3ccccc3C2CN2CCCC2)cc1 (stereo not drawn) [Example 15, 1-(1-pyrrolidinylmethyl)-2-(4-cyanophenylacetyl)-1,2,3,4-tetrahydroisoquinoline hydrochloride sesquihydrate] |  |  |  |  | MOUSE TAIL FLICK % protection (mice; at 1 mg/kg s.c.): 70% |
